Source: patent US12358954B2, “Capsid-modified rAAV vector compositions and methods therefor” (priority 2012, dated 2025)
Entries after “also recorded” stand apart in the source; their conditions may differ.

Experiments:
K562 cells = test: AAV6 transduction of K562 cells after enzyme / inhibitor treatment; type: cell-based, human
From the text: More recently, Denard et al. reported that galectin-3-binding protein in human sera agglutinates AAV6 vectors, which results in decreased transduction efficiency of these vectors. […] The identity of the putative receptor for AAV6 vectors in human CD34^+ cells remains elusive, and additional studies are warranted. […] The implication is that AAV6 uses a protein rather than a lipid on K562 cells for binding and entry into these cells. In addition, because AAV6 is known to have evolved from recombination between AAV1 and AAV2, and because AAV2 uses heparan sulfateproteoglycan (HSPG) as the primary cellular receptor, the level of HSPG expression on K562 cells surface was examined by FACS. […] The effect of inhibitors of O-linked and N-linked glycosylation was also evaluated on the transduction efficiency of AAV6 vectors in K562 cells.

HeLa cells [1] = test: Recombinant AAV2 vector transduction assay in vitro (EGFP imaging); type: cell-based, human
Description: Recombinant AAV2 Vector Transduction Assays in Vitro. Approximately 1×10^5 HeLa cells were used for transductions with recombinant AAV2 vectors. The transduction efficiency was measured 48-hr post-transduction by EGFP imaging using fluorescence microscopy. Images from three to five visual fields were analyzed quantitatively by ImageJ analysis software (NIH, Bethesda, Md., USA). Transgene expression was assessed as total area of green fluorescence (pixel^2) per visual field (mean±SD). Analysis of variance (ANOVA) was used to compare between test results and the control and they were determined to be statistically significant.
The transduction efficiency of each of the tyrosine-mutant vectors was analyzed and compared with the WT scAAV2-EGFP vector in HeLa cells in vitro under identical conditions. […] Specifically, the transduction efficiency of Y444F, Y500F, Y730F vectors was ˜8- to 11-fold higher than the WT vector.
In a second study, HeLa cells, either mock-treated or treated with Tyr23, a specific inhibitor of EGFR-PTK, or MG132, a proteasome inhibitor, both known to increase the transduction efficiency of AAV vectors, were mock-infected or infected with the WT or Y730F scAAV2-EGFP vectors.

Hep293TT cells = test: AAV3 vector transduction assay in Hep293TT cells; type: cell-based, human
Description: (§1) AAV Vector Transduction Assays. Huh7 or HeLa cells were seeded in 96-well plates at a concentration of 5,000 cells per well in complete DMEM medium. AAV infections were performed in serum- and antibiotic-free DMEM medium. Hep293TT cells were seeded in 96-well plates at a concentration of 10,000 cells per well in complete RPMI medium. The infections were performed in serum- and antibiotic-free RPMI medium. The expression of EGFP was analyzed by direct fluorescence imaging 72 hrs' post-transduction.

HeLa cells [2] = test: scAAV2 transduction of HeLa cells with MG132 or Tyr23 (positive control); type: cell-based, human; conditions: MG132 5 μM; Tyr23 200 μM
Description: as §1
Proteasome Inhibitors Increase the Transduction Efficiency of AAV3 Vectors. […] To evaluate whether MG132 can also improve AAV3 trafficking in target cells, Huh7, a well-established human hepatocellular carcinoma cell line (Nakabayashi et al., 1982), and Hep293TT, a recently established human hepatoblastoma cell line (Chen et al., 2009), were either mock-treated or treated with increasing concentrations of MG132. […] Transgene expression was determined by fluorescence microscopy 72 hrs post-transduction.
Previous studies have also shown that inhibition of EGFR-PTK signaling by Tyrphostin 23 (Tyr23), a specific inhibitor of EGFR-PTK (May et al., 1998), modulates the Ub/proteasome pathway, which in turn, facilitates intracellular trafficking and transgene expression mediated by AAV2 vectors (Zhong et al., 2007). […] Transgene expression was determined 72 hr post-transduction.

T47D+hHGFR cells = test: AAV vector transduction of T47D+hHGFR cells; type: cell-based, human
From the text: (§2) Cell Lines and Cultures. Human cervical cancer (HeLa) and hepatocellular carcinoma (Huh7) cell lines were purchased from American Type Culture Collection (Manassas, Va., USA), and maintained in complete DMEM medium (Mediatech, Inc., Manassas, Va., USA) supplemented with 10% heat-inactivated fetal bovine serum (FBS, Sigma-Aldrich Co.), 1% penicillin and streptomycin (P/S, Lonza, Inc.). A newly established human hepatoblastoma (Hep293TT) cell line (Chen et al., 2009) was maintained in complete RPMI medium 1640 (Invitrogen, Inc.) supplemented with 15% heat-inactivated FBS (Sigma-Aldrich Co.), 1% penicillin and streptomycin (P/S, Lonza, Inc.). Cells were grown as adherent cultures in a humidified atmosphere at 37° C. in 5% CO2 and were sub-cultured after treatment with trypsin-versene mixture (Lonza, Inc.) for 2-5 min at room temperature, washed and re-suspended in complete medium. […]
(§3) Human HGFR is required for AAV3 infectivity. […] Equivalent numbers of T47D and T47D+hHGFR cells were transduced with various multiplicities-of-infection (MOI) of self-complementary (sc) AAV3-CBAp-EGFP vectors under identical conditions and transgene expression was determined 72 hr post-transduction.

[3] = tested on: non-canonical NF-κB pathway (p100, p52); test: Western blot of NF-κB pathway components in HeLa cells; type: cell-based, human; conditions: in the presence of VP16
From the text: Western Blot Analyses. Homogenized lysates of the cell pellets from ˜2×10^6 HeLa cells or DCs, mock or pre-treated with the optimal concentration of NF-κB activators or inhibitors were used for sample preparation. Whole cell proteins were isolated using the RIPA lysis buffer (Sigma-Aldrich Co.) and cytoplasmic and nuclear proteins were extracted using a commercial kit (NE-PER Extraction Reagent Kit, Pierce Biotech, Rockford, Ill., USA) as per the manufacturer's protocol in the presence of a protease inhibitor cocktail (Halt™ Protease Inhibitor Cocktail Kit, Pierce Biotech). The protein extracts were boiled for 5 min under reducing conditions [SDS-sample buffer containing 62.5 mM Tris-HCl (pH 6.8 at 25° C.), 2% wt./vol. SDS, 10% glycerol, 50 mM DTT, 0.01% wt./vol. bromo-phenol blue (Cell Signaling Technology, Inc.)] and stored at −86° C. until further analysis. Equal volumes of samples were run on 4-15% SDS-PAGE (Bio-Rad, Hercules, Calif., USA). […] The intensity of the protein bands was measured with Adobe Photoshop CS3 Software® and normalized to proteins levels from the housekeeping gene products used as loading controls.

[4] = tested on: primary human dendritic cells; test: AAV-EGFP transduction of primary human dendritic cells with NF-κB modulators (flow cytometry); type: cell-based
Description: (§4) Recombinant AAV Vector Transduction Assays in Vitro. Optimal concentration of NF-κB-modulating compounds was determined by a cell viability assay with tenfold-dilutions from the IC50 or were used as described previously (Wu and Miyamoto, 2008; Kumar et al., 2008). VP16 or Bay11 (10 or 5 μM, final concentration), and PDTC (50 or 25 μM final concentration) were used either alone or in activator/inhibitor combinations. For transduction experiments, approximately 1×10^5 HeLa cells were either pre-treated with these compounds 24 hrs prior to vector infection. Cells were transduced with 500 or 2,000 vector genomes (vgs) per cell of recombinant WT-AAV or TM-AAV vectors encoding the EGFP transgene as described previously (Markusic et al., 2010). After 7 days of culture, primary human dendritic cells were transduced with AAV vectors at 2000 vgs/cell and incubated for 48 hrs. Transgene expression was assessed as total area of green fluorescence (pixel^2) per visual field (mean±SD), or by flow cytometry. Analysis of variance (ANOVA) was used to compare between test results and the control and they were determined to be statistically significant.
Cells, Antibodies and Chemicals. […]

[5] = tested on: primary human dendritic cells; test: FACS analyses of markers of maturation (CD83, CD86) of primary human dendritic cells; type: cell-based
Description: Cells, Antibodies and Chemicals. HeLa cells were obtained from the American Type Culture Collection (Rockville, Md., USA) and maintained as monolayer cultures in Iscove's-modified Dulbecco's medium (IMDM, Invitrogen, Inc., Carlsbad, Calif., USA) supplemented with 10% newborn calf serum (NCS) (Lonza, Inc., Basel, SWITZERLAND) and antibiotics. Leukapheresis-derived PBMCs were resuspended in serum-free AIM-V medium (Lonza, Inc.) and semi-adherent cell fractions were incubated in serum-free AIM-V medium supplemented with recombinant human IL-4 (500 U/mL) and GM-CSF (800 U/mL) (R&D Systems, MN, USA). Cells were treated with NF-κB modulators ([…]), and cytokines cocktail including 10 ng/mL TNF-α, 10 ng/mL IL-1, 10 ng/mL IL-6, […] (R&D Systems) for 20 hr. Cells were harvested, characterized to ensure they met the typical phenotype of mature DCs (CD83, RPE, murine IgG1, CD86, FITC, murine IgG1; Invitrogen, Inc.). All primary and secondary antibodies were purchased from Cell Signaling Technology, Inc. (Danvers, Mass., USA) or Santa Cruz Biotechnology, Inc (Santa Cruz, Calif., USA). NF-kB activators [Etoposide (VP16), Aphidicolin, Hydroxyurea (HU)] and NF-kB inhibitors [Bay11-7082 (Bay11), Pyrrolidine dithiocarbamate (PDTC)] were purchased from Sigma-Aldrich Co. (St. Louis, Mo., USA). These compounds were re-suspended in either DMSO (Sigma-Aldrich Co.) or in sterile, DNAase-, RNAase-free water (Invitrogen, Inc.) as per the manufacturer's instructions.

HeLa cells [6] = test: AAV-EGFP transduction of HeLa cells in the presence of NF-κB modulators; type: cell-based, human; conditions: HeLa, scAAV-EGFP
Description: as §4

T47D cells = test: AAV3 vector transduction of T47D cells; type: cell-based, human; conditions: 1 μM, 2 hr; 10,000 vg/cell
From the text: as §2, §3

HGFR kinase = biological target: T1, HGFR kinase (Homo sapiens, UniProt P08581); test: Western blot of HGFR phosphorylation and downstream signaling; type: cell-based; conditions: T47D+hHGFR cells
T1 construct: expressed in transfected cells; host or cells: T47D human breast cancer cells stably transfected with a hHGFR expression plasmid (T47D+hHGFR); parental T47D as control
Description: Cells were harvested and disrupted in a radio-immunoprecipitation assay (RIPA) lysis buffer (50 mM Tris-HCl, pH 8.0, 150 mM NaCl, 0.1% SDS, 1% NP-40, 0.25% sodium deoxycholate and 1 mM EDTA with protease inhibitor cocktail, 1 mM NaF and 1 mM Na3VO4). Total protein concentration was measured using a Bradford reagent (Bio-Rad) and equal amounts (50 μg) of whole cell lysates were resolved by SDS-PAGE. After electrophoresis, samples were electro-transferred to a nitrocellulose membrane (Bio-Rad), probed with relevant primary antibodies at 4° C. overnight, incubated with horseradish peroxidase-conjugated secondary antibodies (Jackson ImmunoResearch, West Grove, Pa., USA), and detected with an enhanced chemi-luminescence substrate (Amersham). […]
To examine whether inhibition of the HGFR kinase led to alterations in the phosphorylation status of specific cellular proteins involved in the downstream signaling pathway total and phosphorylation levels of the HGFR protein in both T47D and T47D+hHGFR lysates were determined following a 2-hr drug-incubation period. Activation of signaling pathways downstream from HGFR kinase, ERK1/2 and Akt, were analyzed using phosphorylation-specific antibodies.

[7] = Mature DCs + AAV + Cytokines + modulator

T1 sequence (P08581 25-1390): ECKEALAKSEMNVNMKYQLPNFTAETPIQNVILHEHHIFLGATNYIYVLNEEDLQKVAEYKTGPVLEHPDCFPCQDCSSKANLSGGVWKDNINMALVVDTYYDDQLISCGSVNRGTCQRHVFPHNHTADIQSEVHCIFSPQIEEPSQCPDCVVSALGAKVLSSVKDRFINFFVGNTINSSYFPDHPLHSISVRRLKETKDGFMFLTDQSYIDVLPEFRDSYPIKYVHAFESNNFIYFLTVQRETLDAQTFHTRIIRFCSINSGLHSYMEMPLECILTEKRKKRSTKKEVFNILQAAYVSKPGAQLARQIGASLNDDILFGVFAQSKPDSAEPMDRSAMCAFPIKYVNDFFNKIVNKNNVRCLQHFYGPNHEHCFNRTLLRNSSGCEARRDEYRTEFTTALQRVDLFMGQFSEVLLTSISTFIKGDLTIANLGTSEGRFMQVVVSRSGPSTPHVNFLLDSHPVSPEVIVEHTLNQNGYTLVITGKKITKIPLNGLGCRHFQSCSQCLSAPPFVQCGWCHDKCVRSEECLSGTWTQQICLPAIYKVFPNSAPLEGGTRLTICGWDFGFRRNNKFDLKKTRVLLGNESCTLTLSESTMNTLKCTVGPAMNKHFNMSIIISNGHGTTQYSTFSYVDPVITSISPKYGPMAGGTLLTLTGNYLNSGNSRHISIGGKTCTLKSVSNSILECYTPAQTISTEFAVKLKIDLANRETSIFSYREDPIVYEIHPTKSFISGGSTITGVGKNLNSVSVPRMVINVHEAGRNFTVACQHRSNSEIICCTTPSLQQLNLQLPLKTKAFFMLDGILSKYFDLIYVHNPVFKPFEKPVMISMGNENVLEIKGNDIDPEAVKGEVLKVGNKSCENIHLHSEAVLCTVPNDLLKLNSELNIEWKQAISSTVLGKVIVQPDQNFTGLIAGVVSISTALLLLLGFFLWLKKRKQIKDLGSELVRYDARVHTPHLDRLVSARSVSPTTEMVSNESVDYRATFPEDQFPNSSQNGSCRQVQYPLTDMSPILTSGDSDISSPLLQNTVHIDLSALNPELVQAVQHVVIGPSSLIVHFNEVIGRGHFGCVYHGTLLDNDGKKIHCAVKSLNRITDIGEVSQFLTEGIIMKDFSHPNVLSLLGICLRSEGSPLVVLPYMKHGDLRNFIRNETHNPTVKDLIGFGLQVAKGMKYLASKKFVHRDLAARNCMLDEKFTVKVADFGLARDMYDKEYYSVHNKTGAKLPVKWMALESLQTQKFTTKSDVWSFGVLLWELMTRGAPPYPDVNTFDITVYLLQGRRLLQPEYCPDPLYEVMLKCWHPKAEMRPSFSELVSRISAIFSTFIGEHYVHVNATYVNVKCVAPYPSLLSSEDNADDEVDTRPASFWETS

phospholipase A2
effect on AAV6 vector-mediated transduction of K562 cells (K562 cells): no significant change

N#CC(C#N)=Cc1ccc(O)c(O)c1 [Tyr23, Tyrphostin 23]
increase in transduction efficiency of WT scAAV2-EGFP by pretreatment (HeLa cells [1]): ~9 fold
amounts of internalized viral DNA in presence or absence of inhibitor (Hep293TT cells): no significant difference
transduction efficiency of scAAV3 vectors after treatment (Hep293TT cells; 2 hr treatment): significant increase
transduction efficiency of scAAV2 vectors after pretreatment (HeLa cells [2]): significant increase

hHGF: human hepatocyte growth factor
AAV3 vector-mediated transduction in the presence of hHGF (T47D+hHGFR cells; 5 μg/mL hHGF, 2,000 vgs/cell): completely blocked

COc1cc([C@@H]2c3cc4c(cc3[C@@H](O[C@@H]3O[C@@H]5CO[C@@H](C)O[C@H]5[C@H](O)[C@H]3O)[C@H]3COC(=O)[C@H]23)OCO4)cc(OC)c1O [VP16, Etoposide]
increase in cytosolic p100 and nuclear p52 [3]: 3- to 6 fold
EGFP expression increase compared with scAAV vector-transduced DCs [4]: ~20 fold
maturation of DCs (CD83, CD86) [5]: not able to induce maturation
Geometric means of levels of expression in cells expressing CD83 ([5]; DCs without cytokines): 16.48
Geometric means of levels of expression in cells expressing CD86 ([5]; DCs without cytokines): 13.70
Geometric means of levels of expression in cells expressing CD83 [5, 7]: 19.92
Geometric means of levels of expression in cells expressing CD86 [5, 7]: 21.92

heparin
effect on AAV6 vector-mediated transduction of K562 cells (K562 cells): could not be inhibited

tunicamycin
effect on AAV6 vector-mediated transduction of K562 cells (K562 cells): markedly reduced

S=C(S)N1CCCC1 [PDTC, Pyrrolidine dithiocarbamate]
AAV vector-mediated EGFP expression, fold augmentation (HeLa cells [6]): had no effect; also recorded: no noticeable effect

CCOc1ccn(-c2ccc(F)cc2)c(=O)c1C(=O)Nc1ccc(Oc2ccnc(N)c2Cl)c(F)c1 [BMS-777607, N-(4-(2-amino-3-chloropyridin-4-yloxy)-3-fluorophenyl)-4-ethoxy-1-(4-fluorophenyl)-2-oxo-1,2-dihydropyridine-3-carboxamide]
AAV3 infectivity (T47D+hHGFR cells; 1 μM, 2 hr, 10,000 vg/cell): significantly enhanced
AAV3 infectivity (T47D cells): no effect
expression of phosphorylated AKT and ERK1/2 (HGFR kinase): no effect
phosphorylation of HGFR (HGFR kinase; 2-hr incubation): completely blocked
